Results published in patent US4368203A, “Antibiotics and derivatives thereof having β-lactamase inhibitory activity and production thereof” (priority 1977, dated 1983).
≈ marks a conversion by molar mass, not a printed value. Entries after “also recorded” stand apart in the source; their conditions may differ. Like-named read-outs stand apart in the source and are kept apart here.

What was measured:
Proteus vulgaris P-5 [1] = experiment: Potentiating and synergistic effect, pulp disc inhibition zone on agar plate; assay type: cell-based
Method: (§1) 10 ml of 2.5 folds diluted nutrient agar (pH 7.0) containing 50 μg/ml of penicillin G or cephaloridine was seeded with the β-lactamase producing and β-lactam-resistant microorganisms and poured in a 9 cm Petri dish to provide the bio-assay agar plate. […] A control assay plate was similarly prepared without penicillin G or cephaloridine. As reference antibiotics, 10,000 μg/ml of penicillin G or 20 μl of cephaloridine were disc-assayed under the same conditions.
(§2) Cepholoridine was added to a 2.5-times diluted nutrient agar, pH 7.0 and the medium was inoculated with a β-lactam-producing strain that produceds β-lactamase. Ten ml of the medium was spread and solidified in a petri dish of 9 cm in diameter to prepare an assay plate. […] Each 20 μl of the solution and its 2- and 4-times diluted solutions was soaked in a pulp disc of 8 mm in diameter. To the surface of the above nutrient agar was placed the pulp disc and the size of the growth inhibitory zone around the disc was examined after incubation at 35° C. for 18 hours. […] In addition, for the comparison, a similar experiment was also performed with a pulp disk soaked with 20 μl of 10,000 μg/ml Penicillin G or Cepholoridine solution in place of the antibiotic PS-7.

Citrobacter freundii E-9 [2] = experiment: as above; assay type: cell-based
Method: (§3) 10 ml of 2.5 folds diluted nutrient agar (pH 7.0) containing 50 μg/ml of penicillin G or cephaloridine was seeded with the β-lactamase producing and β-lactam-resistant microorganisms and poured in a 9 cm Petri dish to provide the bio-assay agar plate. On this assay plate, 8 mm of pulp discs each containing 20 μl of antibiotic PS-6 solution at the concentration of 240 μg/ml were placed and incubated at 35° C. for 18 hours before reading the inhibition zones. A control assay plate was similarly prepared without penicillin G or cephaloridine. As reference antibiotics, 10,000 μg/ml of penicillin G or 20 μl of cephaloridine were disc-assayed under the same conditions.

Serratia marcescens S-18 = experiment: as above; assay type: cell-based
Method: as §3

[3] = test system: β-lactamase-producing, β-lactam-resistant bacteria; experiment: Increase of the antibiotic activity of other antibiotics (summary in words); assay type: cell-based; details: β-lactamase-producing bacteria such as Proteus vulgaris, Serratia marcescens
Method: as §1, §2

[4] = test system: Alcaligenes faecalis B-326; experiment: MIC, broth dilution method; assay type: cell-based; details: Alcaligenes faecalis, B326, 20 h, read-out: Minimum inhibitory concentration
Method: (§4) Sodium salt of the antibiotic PS-7 was dissolved and diluted with the BRAIN HEART INFUSION BROTH "Eiken" at a concentration between 5 μg/ml and 100 μg/ml. The solution was further diluted with the same medium to obtain a series of geometric concentrations. To the serial dilutions were added the seed cultures prepared by shaking culture of various test microorganisms shown in Tab. 5 in the BRAIN HEART INFUSION GROTH at 28° C. for 18 hours, the final cell count being about 1×10^5 /ml. […] The lowest concentration at which no cell growth was observed was the minimum inhibitory concentration of the antibiotic PS-7 on the test microorganism. […] . The minimum inhibitory concentrations on test strains were determined in the same manner as mentioned above. […] For the comparison, the results on the known antibiotics Cephazolin and Cefoxitin are also given in the same table.

Citrobacter freundii E-9 [5] = experiment: MIC, broth dilution method; assay type: cell-based; details: Citrobacter freundii, E9, 20 h, lactamase producing organism, read-out: Minimum inhibitory concentration
Method: as §4

[6] = test system: Diplococcus pneumoniae Type III; experiment: MIC, broth dilution method; assay type: cell-based; details: Streptococcus pneumoniae, 20 h, 10% of horse blood in the medium, read-out: Minimum inhibitory concentration
Method: as §4

[7] = test system: Staphylococcus aureus FDA 209P; experiment: MIC, broth dilution method; assay type: cell-based; details: FDA209P, 20 h, final methanol not above 10%, read-out: Minimum inhibitory concentration
Method: as §4

[8] = test system: Enterobacter cloacae E-16; experiment: MIC, broth dilution method; assay type: cell-based; details: Enterobacter cloacae, E16, 20 h, lactamase producing organism, read-out: Minimum inhibitory concentration
Method: Sodium salt of the antibiotic PS-7 was dissolved and diluted with the BRAIN HEART INFUSION BROTH "Eiken" at a concentration between 5 μg/ml and 100 μg/ml. The solution was further diluted with the same medium to obtain a series of geometric concentrations. To the serial dilutions were added the seed cultures prepared by shaking culture of various test microorganisms shown in Tab. 5 in the BRAIN HEART INFUSION GROTH at 28° C. for 18 hours, the final cell count being about 1×10^5 /ml. […] The lowest concentration at which no cell growth was observed was the minimum inhibitory concentration of the antibiotic PS-7 on the test microorganism. […] The minimum inhibitory concentrations on test strains were determined in the same manner as mentioned above.

[9] = test system: Staphylococcus aureus Smith; experiment: In vivo activity in intraperitoneally infected mice; design: species or system DDY male mice; details: for ED50: Staphylococcus aureus, sc, mice infected i.p. with 5×10^5 cells/mouse, subcutaneous injection just after infection, read-out: 50% curative dose (CD50); for Therapeutic effect in infected mice: mice infected with pathogenic Gram-positive bacteria
Method: Soon after infection, an aqueous solution of the antibiotic PS-5 sodium salt preparation was subcutaneously injected.
Activity of the antibiotic PS-7 obtained above was determined using mice infected with Staphylococcus aureus Smith at 5×10^5 cells a mouse intraperitoneally. Sodium salt of the antibiotic PS-7 was administered to the mice subcutaneously immediately after the infection.
The tritylation product of antibiotic PS-6 was subcutaneously injected just after infection. The 50% curative dose on male DDY mice (SHIZUOKA) was 5.5 mg/kg.
The tritylation product of antibiotic PS-7 was subcutaneously injected just after infection. The 50% curative dose on make DDY mice (SHIZUOKA) was 4.5 mg/kg.

[10] = Acute toxicity, intraperitoneal administration; assay type: in vivo, DDY male mice; details: mice, 500 mg/kg
Solubility = assay type: physicochemical; details: 5 mg in 0.1 ml of solvent, shaking, 20° C.; for Solubility in organic solvents: solvents named in the value
From the text: The results are as shown as below:
The results are as shown below:

[11] = Stability (general statements); assay type: physicochemical; details: general statement
[12] = test system: Gram-positive and Gram-negative bacteria; experiment: Antibiotic spectra (summary in words); assay type: cell-based; details: for Antibiotic activity against Gram-negative bacteria resistant to β-lactam antibiotics: genera Citrobacter, Proteus, Klebsiella, Enterobacter, Serratia as named at the place; for Antibiotic activity against Gram-positive bacteria: genera Staphylococcus, Diplococcus, Streptococcus, Bacillus as named at the place
[13] = test system: Streptococcus pyogenes NY-5; experiment: MIC, broth dilution method; details: Streptococcus pyogenes, NY5, 20 h, read-out: Minimum inhibitory concentration
[14] = test system: Klebsiella pneumoniae K-2; experiment: MIC, broth dilution method; details: Klebsiella pneumoniae, K2, 20 h, read-out: Minimum inhibitory concentration
Proteus vulgaris P-5 [15] = experiment: MIC, broth dilution method; details: Proteus vulgaris, P5, 20 h, read-out: Minimum inhibitory concentration
[16] = Table 6, agar containing 50 μg/ml of cephaloridine, disc 20 μl, PS-6 240 μg/ml, reference antibiotics 10,000 μg/ml
[17] = Table 6, agar containing 50 μg/ml of penicillin G, disc 20 μl, PS-6 240 μg/ml, reference antibiotics 10,000 μg/ml

Structure (SMILES)	ED50 [9] [mg/kg]	Therapeutic effect in infected mice [9]	Acute toxicity [10]	Solubility in water (Solubility)	Solubility in organic solvents (Solubility)	Stability [11]	Antibiotic activity against Gram-negative bacteria of the genera Klebsiella, Proteus [12]	Antibiotic activity against Gram-negative bacteria of the genus Alcaligenes (Comamonas) [12]	Antibiotic activity against Gram-negative bacteria resistant to β-lactam antibiotics [12]	Antibiotic activity against Gram-positive bacteria [12]	MIC [13] [µg/mL]	MIC [14] [µg/mL]	MIC (Proteus vulgaris P-5 [15]) [µg/mL]	other results
CC1(C)S[C@@H]2[C@H](NC(=O)Cc3ccccc3)C(=O)N2[C@H]1C(=O)O [penicillin G]	–	–	–	–	–	–	–	–	–	–	–	–	–	zone of inhibition at 10000 µg/mL (Proteus vulgaris P-5 [1]; Proteus vulgaris, P5, 18 h, read-out: Diameter of inhibitory zone, No addition): 15 mm; zone of inhibition at 240 µg/mL (Proteus vulgaris P-5 [1]; Proteus vulgaris, P5, 18 h, read-out: Inhibition zone, Control): 15 mm; Inhibition zone, with cephaloridine (Proteus vulgaris P-5 [1]; [16]): 15.0 mm; Inhibition zone, with penicillin G (Proteus vulgaris P-5 [1]; [17]): 15.0 mm; Diameter of inhibitory zone, Cephaloridine-added (Proteus vulgaris P-5 [1]; Table 8, comparison disc 20 μl of 10,000 μg/ml, cephaloridine in the agar): 15.0 mm; zone of inhibition at 240 µg/mL (Citrobacter freundii E-9 [2]; Citrobacter freundii, E9, 18 h, read-out: Inhibition zone, Control): 0 mm; Inhibition zone, with cephaloridine (Citrobacter freundii E-9 [2]; [16]): 0.0 mm; Inhibition zone, with penicillin G (Citrobacter freundii E-9 [2]; [17]): 0.0 mm; zone of inhibition at 240 µg/mL (Serratia marcescens S-18; Serratia marcescens, S18, 18 h, read-out: Inhibition zone, Control): 0 mm; Inhibition zone, with cephaloridine (Serratia marcescens S-18; [16]): 0.0 mm; Inhibition zone, with penicillin G (Serratia marcescens S-18; [17]): 0.0 mm; Synergistic enhancement of the activity of penicillin G or cephaloridine (β-lactam antibiotics) [3]: no synergistic effect; Synergistic enhancement of the activity of penicillin G or cephaloridine (β-lactam antibiotics) ([3]; listed as Penicillin G): No enhancement of antimicrobial activity
CC(=O)NCCSC1=C(C(=O)OC(c2ccccc2)(c2ccccc2)c2ccccc2)N2C(=O)C(C(C)C)C2C1 (stereo not drawn) [Antibiotic PS-6 trityl ester]	5.5	marked therapeutic effect	no acute toxicity	Substantially insoluble	Substantially insoluble in water and n-hexane; also recorded: Highly soluble in benzene, ethyl acetate, chloroform, methanol, ethanol, acetone, dimethylformamide (DMF) and dimethylsulfoxide (DMSO)	more stable than antibiotic PS-6 or PS-7	good activity	very strong activity	strong activity	very strong activity	0.33 (≈ 0.595 µM)	20 (≈ 36.1 µM)	25 (≈ 45.1 µM)	MIC ([4]; Table 9): 1.34 µg/mL (≈ 2.42 µM); MIC (Citrobacter freundii E-9 [5]; Table 9): 12.5 µg/mL (≈ 22.5 µM); MIC ([6]; Table 9): 0.33 µg/mL (≈ 0.595 µM); MIC ([7]; Table 9, ester dissolved in methanol): 0.33 µg/mL (≈ 0.595 µM); MIC ([8]; Table 9): 25 µg/mL (≈ 45.1 µM); Antibiotic activity against Gram-negative bacteria resistant to β-lactam antibiotics ([12]; listed as trityl ester of antibiotic PS-6): strong antibiotic activity
CCC1C(=O)N2C(C(=O)OC(c3ccccc3)(c3ccccc3)c3ccccc3)=C(SC=CNC(C)=O)CC12 (stereo not drawn) [Antibiotic PS-7 trityl ester]	4.5	marked therapeutic effect	no acute toxicity	Substantially insoluble	Highly soluble in benzene ethyl acetate, chloroform, methanol, ethanol, acetone, dimethylformamide (DMF) and dimethylsulfoxide (DMSO); also recorded: Substantially insoluble in water and n-hexane	more stable than antibiotic PS-6 or PS-7	good activity	very strong activity	strong activity	very strong activity	0.16 (≈ 0.297 µM)	10 (≈ 18.6 µM)	25 (≈ 46.4 µM)	MIC ([4]; Table 10): 1.34 µg/mL (≈ 2.49 µM); MIC (Citrobacter freundii E-9 [5]; Table 10): 6.25 µg/mL (≈ 11.6 µM); MIC ([6]; Table 10): 0.16 µg/mL (≈ 0.297 µM); MIC ([7]; Table 10, ester dissolved in methanol): 0.16 µg/mL (≈ 0.297 µM); MIC ([8]; Table 10): 25 µg/mL (≈ 46.4 µM); Antibiotic activity against Gram-negative bacteria resistant to β-lactam antibiotics ([12]; listed as trityl ester of antibiotic PS-7): strong antibiotic activity
